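The compound was tested at five concentrations on cells cultured in 96-well plates, with a 48-hour exposure period. At the GI50, growth is halved. TGI: concentration producing complete growth inhibition.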
Legend:
Experiment in all cases: inhibition of tumour cell growth, NCI panel, 48 h
[1] = test system: COLO 205 colon
[2] = test system: IGROV1 ovarian
[3] = test system: OVCAR-4 ovarian
[4] = test system: OVCAR-5 ovarian
[5] = test system: OVCAR-8 ovarian
[6] = test system: SF-268 CNS
[7] = test system: SF-539 CNS
[8] = test system: SNB-75 CNS
[9] = test system: U251 CNS
[10] = test system: UACC-62 melanoma

SMILES | GI50 [1] | TGI [1] | GI50 [2] | TGI [2] | GI50 [3] | TGI [3] | GI50 [4] | TGI [4] | GI50 [5] | TGI [5] | GI50 [6] | TGI [6] | GI50 [7] | TGI [7] | GI50 [8] | TGI [8] | GI50 [9] | TGI [9] | GI50 [10] | TGI [10]
CCOC(=O)c1c(C)nc2ccc(Cl)cc2c1-c1ccccc1 | 17.9 µM | 53.4 µM | 16.6 µM | 61.1 µM | 20.6 µM | 66.6 µM | 19.8 µM | 44.6 µM | 26.7 µM | > 100 µM | 19.3 µM | 44.4 µM | 19.6 µM | 39.9 µM | 21.8 µM | 64.9 µM | 19.1 µM | 40.6 µM | 10.7 µM | 26.6 µM
C=C1C(=O)O[C@@H]2C(=O)[C@@H](C)[C@@H]3C=CC(=O)[C@@]3(C)[C@@H](OC(=O)/C(C)=C\C)[C@H]12 |  | 0.725 µM |  | 3.28 µM |  | 18.2 µM |  | 4.69 µM |  | 12 µM |  | 6.22 µM |  | 5.11 µM |  | 19.9 µM |  | 6.67 µM |  | 2.95 µM
CCN(CC)CCOc1ccc(/C(=C(\C)Cc2ccc(OC)cc2)c2ccc(OC(=O)NCc3ccccc3)cc2)cc1 | 1.86 µM | 3.76 µM | 2.46 µM | 6.11 µM | 2.47 µM | 7.51 µM | 3.63 µM | 14.6 µM | 2.38 µM | 5.69 µM | 2.87 µM | 10.7 µM | 1.75 µM | 3.19 µM | 2.42 µM | 8.48 µM | 1.83 µM | 3.43 µM | 1.92 µM | 3.55 µM
N=C1N(c2ccccc2)C(=O)C23CCCC2C13N1CCOCC1 (stereo unspecified) |  | > 100 µM |  | > 100 µM |  | > 100 µM |  | > 100 µM |  | > 100 µM |  | > 100 µM |  | > 100 µM |  | > 100 µM |  | > 100 µM |  | > 100 µM
CC#CS(=O)(=O)c1ccccc1 |  | 24.7 µM |  | 25.4 µM |  | 11.7 µM |  | 18.2 µM |  | 12.5 µM |  | 35.2 µM |  | 15.5 µM |  | 13.9 µM |  | 25.5 µM |  | 14.2 µM
S=c1nc2[nH]ncc2c(N/N=C/c2ccccc2)[nH]1 | > 100 µM | > 100 µM | 45.4 µM | > 100 µM | > 100 µM | > 100 µM | > 100 µM | > 100 µM | > 100 µM | > 100 µM | > 100 µM | > 100 µM | > 100 µM | > 100 µM | > 100 µM | > 100 µM | 93.8 µM | > 100 µM | 72.7 µM | > 100 µM
COc1cc(-c2cc(=O)c3ccccc3o2)ccc1N |  | > 100 µM |  | > 100 µM |  | > 100 µM |  | > 100 µM |  | > 100 µM |  | > 100 µM |  | > 100 µM |  | 83.2 µM |  | > 100 µM |  | > 100 µM
NC(=O)N/N=C(\C(=O)C(=O)Nc1ccc(Cl)c(C(F)(F)F)c1)c1nc2ccc(C(=O)c3ccccc3)cc2[nH]c1=O |  | > 100 µM |  | > 100 µM |  | > 100 µM |  | > 100 µM |  | > 100 µM |  | > 100 µM |  | > 100 µM |  |  |  | > 100 µM |  | > 100 µM
COc1ccc(/C=C2\CN(Cc3cn(CCCNc4ccnc5cc(Cl)ccc45)nn3)C/C(=C\c3ccc(OC)c(OC)c3)C2=O)cc1OC | 1.03 µM | 2.39 µM | 1.05 µM | 2.41 µM | 1.11 µM | 18.1 µM | 2.68 µM | 6.42 µM | 0.81 µM | 15.4 µM | 0.743 µM | 3.09 µM | 1.99 µM | 4.76 µM | 1.71 µM | 6.09 µM | 1.19 µM | 3.88 µM | 1.49 µM | 3.16 µM
N#CC(=S)Nc1ccc(Cl)c(Cl)c1 |  | 49.5 µM |  | 53.8 µM | 5.67 µM | > 100 µM |  | 55.9 µM |  | > 87.1 µM |  | > 94.5 µM |  | 48.5 µM |  | 74.7 µM |  | > 85.1 µM |  | 34.1 µM
CC(=O)NC(CCCCNC(=O)N(CCCl)N=O)C(=O)NCc1ccccc1 (stereo unspecified) |  | > 100 µM |  | > 100 µM |  | > 100 µM |  |  |  | > 100 µM |  | > 100 µM |  | > 100 µM |  | > 100 µM |  | > 100 µM |  | > 100 µM
O=C(O)C1NCCc2c1[nH]c1ccccc21 (stereo unspecified) | > 100 µM | > 100 µM | > 100 µM | > 100 µM | > 100 µM | > 100 µM |  | > 100 µM | > 100 µM | > 100 µM | > 100 µM | > 100 µM | > 100 µM | > 100 µM | > 100 µM | > 100 µM | > 100 µM | > 100 µM | > 100 µM | > 100 µM
O=C(Nc1nccs1)c1cc2c(cc1Cl)Sc1nccn1S2(=O)=O |  | 30.7 µM | 11.7 µM | 29.8 µM | 16.4 µM | 38.6 µM | 21.7 µM | 46 µM | 17.2 µM | 37.1 µM | 19.2 µM | 46.9 µM | 19.4 µM | 37.5 µM | 18.8 µM | 35.4 µM | 17.2 µM | 31 µM | 14.3 µM | 27.4 µM
CN1CCC[C@@H]1CCO[C@](C)(c1ccccc1)c1ccc(Cl)cc1 | 1.75 µM | 3.56 µM | 4.16 µM | 18.1 µM | 8.46 µM | 22 µM | 5.34 µM | 18.6 µM | 10.8 µM | 24.7 µM | 9 µM | 21.5 µM | 9.94 µM | 23.7 µM | 2.29 µM | 12.7 µM | 3.83 µM | 15.8 µM | 1.81 µM | 3.99 µM
O=C1N=C(c2ccccc2)OC1C(=O)c1ccccc1 (stereo unspecified) |  | > 100 µM |  | > 100 µM |  | > 100 µM |  | > 100 µM |  | > 100 µM |  | > 100 µM |  |  |  | > 100 µM |  | > 100 µM |  | > 100 µM
O=C(/C=C\c1cccc2ccccc12)c1cccs1 |  | 29.3 µM |  | 23.3 µM |  | 32.9 µM |  | 32.8 µM |  | 24.9 µM |  | 26.1 µM |  | 34.9 µM |  | 61.3 µM |  | 16.5 µM |  | 21.5 µM
